# Results taken from patent publication US20150105252A1, “SUBSTITUTED PYRAZOLES AS HERBICIDES” (E I DU PONT DE NEMOURS AND COMPANY, priority 2013, published 2015).
# Key:
# Assay in all cases: Test F preemergence
# [1] = system: green foxtail; format: in vivo, Setaria viridis
# Text: (§1) Seeds of plant species selected from corn (Zea mays), soybean (Glycine max), velvetleaf (Abutilon theophrasti), lambsquarters (Chenopodium album), wild poinsettia (Euphorbia heterophylla), pigweed, palmer (palmer pigweed, Amaranthus palmeri), common waterhemp (Amaranthus rudis), surinam grass (Brachiaria decumbens), large crabgrass (Digitaria sanguinalis), crabgrass, Brazil (Brazilian crabgrass, Digitaria horizontalis), fall panicum (Panicum dichotomiflorum), giant foxtail (Setaria faberii), green foxtail (Setaria viridis), goosegrass (Eleusine indica), johnsongrass (Sorghum halepense), common ragweed (Ambrosia elation), barnyardgrass (Echinochloa crus-galli), southern sandbur (Cenchrus echinatus), arrowleaf sida (Sida rhombifolia), Italian ryegrass (Lolium multiflorum), dayflower, VA (Virginia (VA) dayflower, Commelina virginica), field bindweed (Convolvulus arvensis), cocklebur (common cocklebur, Xanthium strumarium), morningglory (Ipomoea coccinea), nightshade (eastern black nightshade, Solanum ptycanthum), kochia (Kochia scoparia), yellow nutsedge (Cyperus esculentus), and hairy beggarticks (Bidens pilosa), were planted into a silt loam soil and treated preemergence with test chemicals formulated in a non-phytotoxic solvent mixture which included a surfactant.
# (§2) At the same time, plants from these crop and weed species and also horseweed (Canada horseweed, Conyza canadensis), smartweed (ladysthumb smartweed, Polygonum persicaria), waterhemp_RES1, (ALS & Triazine resistant common waterhemp, Amaranthus rudis), and waterhemp_RES2, (ALS & HPPD resistant common waterhemp, Amaranthus rudis) were treated with postemergence applications of test chemicals formulated in the same manner. Plants ranged in height from 2 to 18 cm for postemergence treatments (1- to 4-leaf stage). Treated plants and controls were maintained in a greenhouse for 14 to 21 days, after which time all species were compared to controls and visually evaluated. Plant response ratings, summarized in Table F, are based on a scale of 0 to 100 where 0 is no effect and 100 is complete control. A dash (-) response means no test result.
# [2] = system: giant foxtail; format: in vivo, Setaria faberii
# Text: as §1, §2
# [3] = system: barnyardgrass; format: in vivo, Echinochloa crus-galli
# Text: as §1, §2
# [4] = system: common waterhemp; format: in vivo, Amaranthus rudis
# Text: as §1, §2
# [5] = system: field bindweed; format: in vivo, Convolvulus arvensis
# Text: as §1, §2
# [6] = Preemergence, 62 g ai/ha, scale 0 to 100
# [7] = Preemergence, 125 g ai/ha, scale 0 to 100
# [8] = preemergence, 8 g ai/ha, scale 0 to 100, 100 is complete control
# [9] = preemergence, 16 g ai/ha, scale 0 to 100, 100 is complete control
# [10] = Preemergence, 16 g ai/ha, scale 0 to 100
# [11] = Preemergence, 250 g ai/ha, scale 0 to 100
SMILES,"Plant response rating, Green Foxtail [1, 6]","Plant response rating, Green Foxtail [1, 7]","Plant response rating, Green Foxtail [1, 8]","Plant response rating, Green Foxtail [1, 9]","Plant response rating, Giant Foxtail [2, 6]","Plant response rating, Giant Foxtail [2, 7]","Plant response rating, Giant Foxtail [2, 8]","Plant response rating, Giant Foxtail [2, 9]","Plant response rating, Barnyardgrass [3, 10]","Plant response rating, Barnyardgrass [3, 6]","Plant response rating, Barnyardgrass [3, 7]","Plant response rating, Barnyardgrass [3, 8]","Plant response rating, Barnyardgrass [3, 9]","Plant response rating, Common Waterhemp [4, 10]","Plant response rating, Common Waterhemp [4, 6]","Plant response rating, Common Waterhemp [4, 7]","Plant response rating, Field Bindweed [5, 10]","Plant response rating, Field Bindweed [5, 6]","Plant response rating, Field Bindweed [5, 7]","Plant response rating, Field Bindweed [5, 9]",other results
CCNC(=O)c1cc(CC)n(Cc2ccnc(C(F)(F)F)c2)n1 [Compound 196],75,100,0,0,70,100,0,0,0,10,65,0,0,50,75,100,20,75,85,10,"Plant response rating, Common Waterhemp [4, 8]: 0; Plant response rating, Common Waterhemp [4, 9]: 35; Plant response rating, Field Bindweed [5, 8]: 5"
Cc1cc(C(=O)NC(C)C)nn1Cc1ccnc(C(F)(F)F)c1 [Compound 197],35,65,0,0,20,100,0,0,0,0,0,0,0,65,65,85,35,50,80,15,"Plant response rating, Common Waterhemp [4, 8]: 20; Plant response rating, Common Waterhemp [4, 9]: 60; Plant response rating, Field Bindweed [5, 8]: 10"
CCc1cc(C(=O)NC2CC2)nn1Cc1ccnc(OCC(F)(F)F)c1 [Compound 200],5,60,–,0,0,5,–,0,15,25,20,–,0,0,20,100,0,0,50,0,"Plant response rating, Green Foxtail [1, 11]: 85; Plant response rating, Giant Foxtail [2, 11]: 40; Plant response rating, Barnyardgrass [3, 11]: 50; Plant response rating, Common Waterhemp [4, 11]: 100; Plant response rating, Field Bindweed [5, 11]: 60"
